Experimental data: patent US20150344457A1, “METHODS OF INHIBITING PRMT5” (EPIZYME, INC., priority 2012, published 2015)
Read-outs that look alike come from different tables or passages of the source.

Experiments:
PRMT5/MEP50 = target: T1, PRMT5/MEP50 (Homo sapiens, UniProt O14744); experiment: PRMT5 Biochemical Assay (PRMT5/MEP50 enzyme assay on peptide substrate, 3H-SAM Flashplate)
T1 construct: Expressed full-length human Flag-PRMT5/6His-MeP50 protein complex was purified; made in house; host or cells: Spodoptera frugiperda (SF9) insect cells, baculovirus (pDEST8)
T1 sequence (O14744 with tags, fused parts or gaps): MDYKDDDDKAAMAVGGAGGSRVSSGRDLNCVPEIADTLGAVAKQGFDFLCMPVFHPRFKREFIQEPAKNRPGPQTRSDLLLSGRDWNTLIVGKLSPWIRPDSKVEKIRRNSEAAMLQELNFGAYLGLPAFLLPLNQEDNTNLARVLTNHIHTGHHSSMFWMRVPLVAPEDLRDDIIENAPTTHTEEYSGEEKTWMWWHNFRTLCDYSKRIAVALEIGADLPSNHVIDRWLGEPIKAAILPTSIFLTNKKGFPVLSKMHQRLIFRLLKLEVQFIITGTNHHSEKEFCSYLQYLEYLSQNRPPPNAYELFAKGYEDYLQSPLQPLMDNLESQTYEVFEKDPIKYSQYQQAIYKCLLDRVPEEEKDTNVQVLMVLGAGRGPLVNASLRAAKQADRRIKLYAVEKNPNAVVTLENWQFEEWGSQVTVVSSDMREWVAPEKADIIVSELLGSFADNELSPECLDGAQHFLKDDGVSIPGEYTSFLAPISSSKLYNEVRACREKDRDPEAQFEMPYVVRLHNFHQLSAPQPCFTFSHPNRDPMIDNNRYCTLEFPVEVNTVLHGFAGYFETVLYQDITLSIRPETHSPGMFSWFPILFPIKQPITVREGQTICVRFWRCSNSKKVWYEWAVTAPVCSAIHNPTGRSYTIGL
T1 sequence (Q9BQA1 with tags, fused parts or gaps partner limits assumed): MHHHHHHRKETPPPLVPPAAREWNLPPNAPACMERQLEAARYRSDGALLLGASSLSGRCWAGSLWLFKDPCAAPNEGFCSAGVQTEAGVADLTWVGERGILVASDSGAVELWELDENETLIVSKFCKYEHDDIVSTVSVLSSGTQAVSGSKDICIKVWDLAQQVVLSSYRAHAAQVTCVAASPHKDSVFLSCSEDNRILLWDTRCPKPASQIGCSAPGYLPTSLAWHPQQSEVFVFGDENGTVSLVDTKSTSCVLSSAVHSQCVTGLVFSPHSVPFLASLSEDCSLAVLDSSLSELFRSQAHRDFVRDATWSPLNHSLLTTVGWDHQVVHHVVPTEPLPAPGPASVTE

Z-138 cells = experiment: Z-138 Proliferation Assay (Cell Titer Glo, 5 days); type: cell-based; settings: Homo sapiens, 120 h, Table A-2, 5 days, top concentration 20 μM
In short: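 Exponentially growing Z-138 cells (10,000 cells/ml) in RPMI 1640 with 10% FBS are exposed to nine-point 3-fold dilutions (final top concentration 20 μM, 0.2% DMSO) for 5 days at 37° C. Viability is measured as ATP by CellTiter-Glo luminescence. The 50% inhibitory concentration comes from a 4-parameter fit.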

[1] = Table A-2, PRMT5/MEP50 4 nM, 3H-SAM 75 nM, peptide 40 nM, read-out: Biochemical IC50

SMILES	IC50 (PRMT5/MEP50; [1])	IC50 (PRMT5/MEP50; Biochemical IC50)	EC50 (Z-138 cells)
O=C(COc1cccc2cccnc12)NCC(O)CN1CCc2ccccc2C1 (stereo not shown) [Compound A6]	–	< 100 nM	101 to 1000 nM
O=C(COc1cccc(F)c1)NCC(O)CN1CCc2ccccc2C1 (stereo not shown) [Compound A7]	101 to 1000 nM	–	10000 to 50000 nM
N#Cc1cccc(OCC(=O)NCC(O)CN2CCc3ccccc3C2)c1 (stereo not shown) [Compound A8]	101 to 1000 nM	–	10000 to 50000 nM
COc1ccc(OCC(=O)NCC(O)CN2CCc3ccccc3C2)cc1 (stereo not shown) [Compound A12]	101 to 1000 nM	–	10000 to 50000 nM
Cc1ccccc1OCC(=O)NCC(O)CN1CCc2ccccc2C1 (stereo not shown) [Compound A15]	101 to 1000 nM	–	1000 to 10000 nM
O=C(CNc1ccccc1)NCC(O)CN1CCc2ccccc2C1 (stereo not shown) [Compound A18]	1000 to 10000 nM	–	> 20000 nM
CC(=O)Nc1ccc(OCC(=O)NCC(O)CN2CCc3ccccc3C2)cc1 (stereo not shown) [Compound A21]	101 to 1000 nM	–	> 20000 nM
Cn1ncc2ccc(OCC(=O)NCC(O)CN3CCc4ccccc4C3)cc21 (stereo not shown) [Compound A23]	< 100 nM	–	1000 to 10000 nM
NC(=O)c1ccccc1OCC(=O)NCC(O)CN1CCc2ccccc2C1 (stereo not shown) [Compound A29]	101 to 1000 nM	–	> 20000 nM
NC(=O)c1cccc(OCC(=O)NCC(O)CN2CCc3ccccc3C2)c1 (stereo not shown) [Compound A34]	101 to 1000 nM	–	10000 to 50000 nM
CN(C)c1ccc(OCC(=O)NCC(O)CN2CCc3ccccc3C2)cc1 (stereo not shown) [Compound A35]	101 to 1000 nM	–	10000 to 50000 nM
CC(=O)Nc1ccccc1OCC(=O)NCC(O)CN1CCc2ccccc2C1 (stereo not shown) [Compound A36]	101 to 1000 nM	–	> 20000 nM
CC(Oc1cccc2cccnc12)C(=O)NCC(O)CN1CCc2ccccc2C1 (stereo not shown) [Compound A39]	< 100 nM	–	101 to 1000 nM
CS(=O)(=O)Nc1ccc(OCC(=O)NCC(O)CN2CCc3ccccc3C2)cc1 (stereo not shown) [Compound A42]	101 to 1000 nM	–	> 20000 nM
O=C(COc1cccc2cccnc12)NC[C@H](O)CN1CCc2ccccc2C1 [Compound A44]	–	101 to 1000 nM	10000 to 50000 nM
O=C(COc1cccc2cccnc12)NC[C@@H](O)CN1CCc2ccccc2C1 [Compound A45]	–	< 100 nM	101 to 1000 nM
Cn1cnc2cc(OCC(=O)NCC(O)CN3CCc4ccccc4C3)ccc21 (stereo not shown) [Compound A46]	101 to 1000 nM	–	10000 to 50000 nM
CS(=O)(=O)c1cccc(OCC(=O)NCC(O)CN2CCc3ccccc3C2)c1 (stereo not shown) [Compound A47]	< 100 nM	–	1000 to 10000 nM
O=C(COc1cccc2ccc(N3CCOCC3)nc12)NCC(O)CN1CCc2ccccc2C1 (stereo not shown) [Compound A48]	< 100 nM	–	10000 to 50000 nM
O=C(COc1ccccc1N1CCOCC1)NCC(O)CN1CCc2ccccc2C1 (stereo not shown) [Compound A49]	< 100 nM	–	1000 to 10000 nM
O=C(COc1ccccc1-c1cc[nH]n1)NCC(O)CN1CCc2ccccc2C1 (stereo not shown) [Compound A50]	< 100 nM	–	1000 to 10000 nM
O=C(COc1cccc2c1CCCC2)NCC(O)CN1CCc2ccccc2C1 (stereo not shown) [Compound A64]	< 100 nM	–	1000 to 10000 nM

SMILES	IC50 (PRMT5/MEP50; [1])	IC50 (PRMT5/MEP50; Biochemical IC50)	EC50 (Z-138 cells)
NS(=O)(=O)c1ccccc1OCC(=O)NCC(O)CN1CCc2ccccc2C1 (stereo not shown) [Compound A65]	< 100 nM	–	1000 to 10000 nM
O=C(COc1ccccc1-c1cc[nH]n1)NC[C@@H](O)CN1CCc2ccccc2C1 [Compound A67]	< 100 nM	–	1000 to 10000 nM
O=C(COc1ccccc1-c1cc[nH]n1)NC[C@H](O)CN1CCc2ccccc2C1 [Compound A68]	< 100 nM	–	> 20000 nM
O=C(COc1ccc2ncn(C3CCNCC3)c2c1)NCC(O)CN1CCc2ccccc2C1 (stereo not shown) [Compound A70]	< 100 nM	–	> 20000 nM
CN1CCC(n2cnc3ccc(OCC(=O)NCC(O)CN4CCc5ccccc5C4)cc32)CC1 (stereo not shown) [Compound A71]	< 100 nM	–	> 20000 nM
C[C@@H](Oc1cccc2cccnc12)C(=O)NC[C@H](O)CN1CCc2ccccc2C1 [Compound A73]	< 100 nM	–	101 to 1000 nM
CN1CCC(n2ncc3cc(OCC(=O)NCC(O)CN4CCc5ccccc5C4)ccc32)C1 (stereo not shown) [Compound A96]	< 100 nM	–	10000 to 50000 nM
COc1ccc2cccc(OCC(=O)NC[C@H](O)CN3CCc4ccccc4C3)c2n1 [Compound A97]	101 to 1000 nM	–	1000 to 10000 nM
COc1ccc2cccc(OCC(=O)NC[C@@H](O)CN3CCc4ccccc4C3)c2n1 [Compound A98]	< 100 nM	–	1000 to 10000 nM
CN1CCc2c(cccc2OCC(=O)NCC(O)CN2CCc3ccccc3C2)C1 (stereo not shown) [Compound A99]	< 100 nM	–	1000 to 10000 nM
O=C(COc1cccc2c1OCCO2)NCC(O)CN1CCc2ccccc2C1 (stereo not shown) [Compound A100]	< 100 nM	–	1000 to 10000 nM
CC(=O)N1CCc2c(cccc2OCC(=O)NCC(O)CN2CCc3ccccc3C2)C1 (stereo not shown) [Compound A101]	< 100 nM	–	1000 to 10000 nM
CS(=O)(=O)N1CCc2c(cccc2OCC(=O)NCC(O)CN2CCc3ccccc3C2)C1 (stereo not shown) [Compound A102]	< 100 nM	–	1000 to 10000 nM
O=C(COc1ccccc1C1CCNCC1)NCC(O)CN1CCc2ccccc2C1 (stereo not shown) [Compound A103]	< 100 nM	–	> 20000 nM
CS(=O)(=O)N1CCN(c2ccccc2OCC(=O)NCC(O)CN2CCc3ccccc3C2)CC1 (stereo not shown) [Compound A106]	101 to 1000 nM	–	> 20000 nM
O=C(COc1ccccc1S(=O)(=O)N1CCNCC1)NCC(O)CN1CCc2ccccc2C1 (stereo not shown) [Compound A107]	< 100 nM	–	1000 to 10000 nM
CN(C)S(=O)(=O)c1ccccc1OCC(=O)NCC(O)CN1CCc2ccccc2C1 (stereo not shown) [Compound A109]	< 100 nM	–	101 to 1000 nM
O=C(COc1ccccc1S(=O)(=O)N1CCCC1)NCC(O)CN1CCc2ccccc2C1 (stereo not shown) [Compound A110]	< 100 nM	–	101 to 1000 nM
O=C(COc1ccccc1S(=O)(=O)N1CCC(O)C1)NCC(O)CN1CCc2ccccc2C1 (stereo not shown) [Compound A111]	< 100 nM	–	101 to 1000 nM
CN(C)C(=O)c1ccccc1OCC(=O)NCC(O)CN1CCc2ccccc2C1 (stereo not shown) [Compound A113]	101 to 1000 nM	–	10000 to 50000 nM
CC(Oc1ccccc1S(C)(=O)=O)C(=O)NCC(O)CN1CCc2ccccc2C1 (stereo not shown) [Compound A114]	101 to 1000 nM	–	> 20000 nM

The next lines start with results.

IC50 (PRMT5/MEP50; [1])	SMILES	IC50 (PRMT5/MEP50; Biochemical IC50)	EC50 (Z-138 cells)
101 to 1000 nM	Cc1ccc(OCC(=O)NCC(O)CN2CCc3ccccc3C2)cc1 (stereo not shown) [Compound A9]	–	10000 to 50000 nM
101 to 1000 nM	N#Cc1ccc(OCC(=O)NCC(O)CN2CCc3ccccc3C2)cc1 (stereo not shown) [Compound A11]	–	10000 to 50000 nM
101 to 1000 nM	O=C(COc1ccccc1F)NCC(O)CN1CCc2ccccc2C1 (stereo not shown) [Compound A16]	–	10000 to 50000 nM
101 to 1000 nM	N#Cc1ccccc1OCC(=O)NCC(O)CN1CCc2ccccc2C1 (stereo not shown) [Compound A17]	–	10000 to 50000 nM
< 100 nM	CC(Oc1ccccc1)C(=O)NCC(O)CN1CCc2ccccc2C1 (stereo not shown) [Compound A19]	–	1000 to 10000 nM
< 100 nM	COc1cccc(OCC(=O)NCC(O)CN2CCc3ccccc3C2)c1 (stereo not shown) [Compound A20]	–	1000 to 10000 nM
< 100 nM	COc1ccccc1OCC(=O)NCC(O)CN1CCc2ccccc2C1 (stereo not shown) [Compound A22]	–	1000 to 10000 nM
< 100 nM	Cc1cccc(OCC(=O)NCC(O)CN2CCc3ccccc3C2)c1 (stereo not shown) [Compound A26]	–	1000 to 10000 nM
< 100 nM	CN(C)c1cccc(OCC(=O)NCC(O)CN2CCc3ccccc3C2)c1 (stereo not shown) [Compound A27]	–	1000 to 10000 nM
< 100 nM	CS(=O)(=O)Nc1cccc(OCC(=O)NCC(O)CN2CCc3ccccc3C2)c1 (stereo not shown) [Compound A28]	–	1000 to 10000 nM
1000 to 10000 nM	CC(=O)Nc1cccc(OCC(=O)NCC(O)CN2CCc3ccccc3C2)c1 (stereo not shown) [Compound A31]	–	10000 to 50000 nM
101 to 1000 nM	O=C(COc1ccccc1)NC[C@H](O)CN1CCc2ccccc2C1 [Compound A32]	–	10000 to 50000 nM
< 100 nM	CS(=O)(=O)c1ccccc1OCC(=O)NCC(O)CN1CCc2ccccc2C1 (stereo not shown) [Compound A37]	–	1000 to 10000 nM
< 100 nM	CN(C)c1ccccc1OCC(=O)NCC(O)CN1CCc2ccccc2C1 (stereo not shown) [Compound A38]	–	1000 to 10000 nM
< 100 nM	O=C(COc1ccccc1C1CCCCC1)NCC(O)CN1CCc2ccccc2C1 (stereo not shown) [Compound A40]	–	1000 to 10000 nM
< 100 nM	CC(C)(Oc1cccc2cccnc12)C(=O)NCC(O)CN1CCc2ccccc2C1 (stereo not shown) [Compound A43]	–	1000 to 10000 nM
< 100 nM	CS(=O)(=O)Nc1ccccc1OCC(=O)NCC(O)CN1CCc2ccccc2C1 (stereo not shown) [Compound A53]	–	1000 to 10000 nM
< 100 nM	O=C(COc1cccc2ccccc12)NCC(O)CN1CCc2ccccc2C1 (stereo not shown) [Compound A66]	–	1000 to 10000 nM
< 100 nM	C[C@@H](Oc1cccc2cccnc12)C(=O)NC[C@@H](O)CN1CCc2ccccc2C1 [Compound A74]	–	1000 to 10000 nM
101 to 1000 nM	CN(C)c1ccc2cccc(OCC(=O)NC[C@H](O)CN3CCc4ccccc4C3)c2n1 [Compound A104]	–	> 20000 nM
< 100 nM	CN(C)c1ccc2cccc(OCC(=O)NC[C@@H](O)CN3CCc4ccccc4C3)c2n1 [Compound A105]	–	1000 to 10000 nM
< 100 nM	CN1CCN(S(=O)(=O)c2ccccc2OCC(=O)NCC(O)CN2CCc3ccccc3C2)CC1 (stereo not shown) [Compound A108]	–	10000 to 50000 nM
101 to 1000 nM	CNC(=O)c1ccccc1OCC(=O)NCC(O)CN1CCc2ccccc2C1 (stereo not shown) [Compound A112]	–	> 20000 nM
1000 to 10000 nM	O=C(COc1ccccc1C1CCNC1)NCC(O)CN1CCc2ccccc2C1 (stereo not shown) [Compound A116]	–	> 20000 nM
101 to 1000 nM	O=C(COc1ccccc1C1CCCNC1)NCC(O)CN1CCc2ccccc2C1 (stereo not shown) [Compound A117]	–	1000 to 10000 nM
